Like-named read-outs stand apart in the source and are kept apart here.
Legend:
[1] = First-in-human Part 3 food effect PK, single 60 mg dose; assay type: in vivo; details: for Tmax / AUC(0-t): human, oral, 60 mg
From the text: First-in-human study in up to approximately 168 healthy volunteers (HVs), of which 64 (in Parts 2 & 4) had asymptomatic atopic diathesis. • Part 1 was a double-blind (subject and investigator blind, sponsor unblinded), placebo-controlled single ascending dose (SAD) escalation study of 10 cohorts (N=80) • Part 2 was a double-blind (subject and investigator blind, sponsor unblinded), placebo-controlled multiple ascending dose (MAD) (13 doses over 12 days) escalation study employing once daily dosing in 6 cohorts in healthy volunteers with asymptomatic atopic diathesis (N=48) • Part 3 was a single dose open-label crossover food effect study in 12 HVs • Part 4 was a double-blind (subject and investigator blind, sponsor unblinded), placebo-controlled multiple dose (25 doses over 12 days) study employing twice daily dosing in 2 cohorts of healthy volunteers with asymptomatic atopic diathesis (N=16)
Part 3 was an open-label, randomized, two-way cross-over, single dose study to assess food effects. In Part 3, each subject participated in a 28 day screening period (Day −29 to −2), 2 baseline (Day −1) and 2 treatment periods, each consisting of a single dose administration on Day 1 followed by safety and PK assessment up to Day 5. Treatment period 2 consisted of a follow-up visit and an end of study evaluation on Day 22 and 40, respectively. The two treatment periods were separated by a wash-out period of at least 18 days (+/−1 day).
Subjects were randomized to one of the 2 treatment sequences in the ratio of 1:1:
Pharmacokinetic samples were obtained in blood and evaluated in all subjects at all dose levels. The samples from placebo subjects were not analyzed. The samples for PK assessments from subjects were collected at time points defined in the study. Compound (I) concentrations were determined in blood by a validated LC-MS/MS method.

[2] = molecular target: T1, BTK (Homo sapiens, UniProt Q06187); assay: BTK occupancy in human whole blood (free and total BTK ELISA, MSD); assay type: in vivo
T1 construct: from tissue; host or cells: human whole blood (peripheral blood of dosed volunteers)
T1 sequence (Q06187 whole entry): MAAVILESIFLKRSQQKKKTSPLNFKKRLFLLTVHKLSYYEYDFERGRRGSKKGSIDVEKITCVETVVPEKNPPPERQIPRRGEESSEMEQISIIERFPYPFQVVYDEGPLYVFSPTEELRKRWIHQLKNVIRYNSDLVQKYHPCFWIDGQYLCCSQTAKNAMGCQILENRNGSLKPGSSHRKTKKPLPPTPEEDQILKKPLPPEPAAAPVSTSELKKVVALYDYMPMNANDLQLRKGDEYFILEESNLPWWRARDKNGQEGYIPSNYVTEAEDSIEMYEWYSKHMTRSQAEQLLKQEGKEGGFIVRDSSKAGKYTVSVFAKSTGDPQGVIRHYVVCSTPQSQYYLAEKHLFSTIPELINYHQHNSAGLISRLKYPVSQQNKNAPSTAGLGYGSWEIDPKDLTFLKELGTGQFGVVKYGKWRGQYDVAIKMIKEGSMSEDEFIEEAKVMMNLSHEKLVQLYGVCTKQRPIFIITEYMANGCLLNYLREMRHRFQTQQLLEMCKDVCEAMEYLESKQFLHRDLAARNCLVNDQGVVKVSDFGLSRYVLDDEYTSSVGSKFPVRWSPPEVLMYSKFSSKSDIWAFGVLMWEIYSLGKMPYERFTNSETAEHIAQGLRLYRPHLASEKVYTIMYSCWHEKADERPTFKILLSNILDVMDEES
Experimental: Pharmacodynamics (PD) was characterized by assessing target occupancy and distal pathway inhibition. Measurements of BTK occupancy in human whole blood (derived as ratio of free and total BTK), served as direct marker of therapeutic target engagement.
Compound of formula (I) is an irreversible inhibitor of BTK, the extent and duration of BTK occupancy were determined.
The relationship between dose and pharmacodynamics was characterized by measurements of BTK occupancy in human blood (derived as ratio of free and total BTK), a direct marker of therapeutic target engagement. BTK occupancy was determined for single ascending doses ranging 0.5 to 400 mg, for q.d. multiple ascending doses ranging from of 10 mg and 400 mg, and for b.i.d. multiple ascending doses of 100 mg and 200 mg.

[3] = single dose 60 mg, FAST, Geomean
[4] = single dose 60 mg, FED, Geomean
[5] = after single dose, peripheral blood

In the case of `C=CC(=O)N(C)CCOc1c(N)ncnc1-c1cc(F)cc(NC(=O)c2ccc(C3CC3)cc2F)c1C` [Compound of Formula (I), N-(3-(6-Amino-5-(2-(N-methylacrylamido)ethoxy)pyrimidin-4-yl)-5-fluoro-2-methylphenyl)-4-cyclopropyl-2-fluorobenzamide], the Tmax ([1]; blood, fasted, read-out: mean Tmax) is reported as 1 h, the Tmax ([1]; blood, fed, read-out: mean Tmax) is reported as > 3 h and the AUC(0-t) ([1]; blood, single dose 60 mg, FAST, Geomean, read-out: AUC0-24) is reported as 182 ng·h/mL. The AUC(0-t) ([1]; blood, single dose 60 mg, FAST, Geomean, read-out: AUClast) was 177 ng·h/mL, the AUC(0-t) ([1]; blood, single dose 60 mg, FAST, Mean, read-out: AUC0-24) was 202 ng·h/mL and the AUC(0-t) ([1]; blood, single dose 60 mg, FAST, Mean, read-out: AUClast) was 196 ng·h/mL. The Tmax ([1]; blood, single dose 60 mg, FED, Geomean, read-out: Tmax) was 3.18 h, the Tmax ([1]; whole blood, single dose 60 mg, FAST, Geomean, read-out: Tmax) was 0.95 h and the Tmax ([1]; whole blood, single dose 60 mg, FAST, Mean, read-out: Tmax) was 1.02 h. The AUC(0-t) ([1]; whole blood, single dose 60 mg, FED, Geomean, read-out: AUC0-24) was 249 ng·h/mL, the AUC(0-t) ([1]; whole blood, single dose 60 mg, FED, Mean, read-out: AUC0-24) was 264 ng·h/mL and the AUC(0-t) ([1]; whole blood, single dose 60 mg, FED, Mean, read-out: AUClast) was 252 ng·h/mL. The Tmax ([1]; whole blood, single dose 60 mg, FED, Mean, read-out: Tmax) was 3.42 h, the Cmax [1, 3] was 100.95 ng/mL and the Tlast [1, 3] was 9.66 h. For the same compound, the Cmax ([1]; single dose 60 mg, FAST, Mean) was 114.81 ng/mL, the Tlast ([1]; single dose 60 mg, FAST, Mean) was 10.50 h and the AUClast [1, 4] was 237.84 ng·h/mL. It also gave a Cmax [1, 4] of 80.86 ng/mL, a Tlast [1, 4] of 9.25 h and a Cmax ([1]; single dose 60 mg, FED, Mean) of 83.39 ng/mL. For the same compound, the Tlast ([1]; single dose 60 mg, FED, Mean) was 9.50 h, the “higher AUC0-24 fed vs fasted” value ([1]; single oral dose 60 mg) was 1.4 fold and the “lower Cmax fed vs fasted” value ([1]; single oral dose 60 mg) was 1.25 fold. The “BTK occupancy in blood” value ([2]; 10 mg q.d.) was “nearly complete”, the “through BTK occupancy in blood” value ([2]; 10 mg q.d., pre-dose at day 12) was > 96% and the “median BTK turnover T1/2” value [2, 5] was “about 48 hours”. The “time to refresh BTK protein pool to pre-dose levels” value [2, 5] was “about 10 days”, the “duration of BTK occupancy in blood” value ([2]; in vivo) was > 24 h and the “time of peak target occupancy post dose” value ([2]; peripheral blood) was 0.5 h. The “BTK occupancy at 24 h” value ([2]; single doses of 15 mg and above) was “above 80%”, the “peak target (BTK) occupancy” value ([2]; single doses of 15 mg and above, nearly all subjects) was ~100% and the “duration of sustained BTK occupancy” value ([2]; single doses of 30 mg and higher) was > 24 h. The “BTK occupancy (near-complete)” value ([2]; single doses of 30 mg and higher, all subjects) was > 90%.

Reference: US12383556B2, “Methods of treating Sjögren's syndrome using a Bruton's tyrosine kinase inhibitor” (NOVARTIS AG, priority 2019, dated 2025)
